Measured values as given in patent US9499550B2 (BRISTOL-MYERS SQUIBB COMPANY, priority 2012, dated 2016).
Read-outs that look alike come from different tables or passages of the source.

How the values were obtained:
[1] = test system: HCV genotype 1a (H77 strain) replicon in HUH-7 cells; assay: HCV replicon luciferase reporter assay, genotype 1a; assay type: cell-based; details: Hepatitis C virus, Huh-7, 72 h, 3 days incubation, read-out: LE_1a (EC50, range)
Procedure, shortened: (§1)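 Replicon inhibition for both genotypes was measured as Renilla luciferase signal (EnduRen, 7.5 μM final, 2 h) after 3-day, 37° C exposure of replicon-bearing HUH-7 cells in 4% FCS DMEM, 0.5% DMSO. The 1b construct carries S1179I; the 1a H77 construct carries P1496L and S2204I. Twenty-point, 3-fold dilutions were fitted four-parametrically for EC50, and CC50 was taken from multiplexed Cell Titer-Blue.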

[2] = test system: HCV genotype 1b (Con1) replicon in HUH-7 cells; assay: HCV replicon luciferase reporter assay, genotype 1b; assay type: cell-based; details: Hepatitis C virus, Huh-7, 72 h, 3 days incubation, read-out: LE_1b (EC50, range)
Procedure, shortened: as §1

[3] = HCV genotype 1a replicon luciferase assay, range class
[4] = HCV genotype 1b replicon luciferase assay, range class
[5] = HCV genotype 1a replicon luciferase
[6] = HCV genotype 1b replicon luciferase

Structure (SMILES)	EC50 [1, 5] [nM]	EC50 [2, 6] [nM]	other results
COc1ccc2c(O[C@@H]3C[C@H]4C(=O)N[C@]5(C(=O)NS(=O)(=O)C6(C(F)F)CC6)C[C@H]5/C=C\CC[C@@H](C)C[C@@H](C)[C@H](NC(=O)OC(C)(C)C)C(=O)N4C3)nc(OC)cc2c1 [Compound 1180, tert-butyl ((2R,6S,7R,9R,13aS,14aR,16aS,Z)-14a-(((1-(difluoromethyl)cyclopropyl)sulfonyl)carbamoyl)-2-((3,6-dimethoxyisoquinolin-1-yl)oxy)-7,9-dimethyl-5,16-dioxo-1,2,3,5,6,7,8,9,10,11,13a,14,14a,15,16,16a-hexadecahydrocyclopropa[e]pyrrolo[1,2-a][1,4]diazacyclopentadecin-6-yl)carbamate]	–	–	EC50 [1, 3]: < 5.46 nM; EC50 [2, 4]: < 5.46 nM
CC[C@@H]1C[C@H](C)CC/C=C\[C@@H]2C[C@@]2(C(=O)NS(=O)(=O)C2(C)CC2)NC(=O)[C@@H]2C[C@@H](Oc3nccc4c5c(ccc34)OCCO5)CN2C(=O)[C@H]1NC(=O)OC(C)(C)C(F)F [Compound 5535, 1,1-difluoro-2-methylpropan-2-yl((2R,6S,7R,9R,13aS,14aR,16aS,Z)-2-((2,3-dihydro-[1,4]dioxino[2,3-f]isoquinolin-7-yl)oxy)-7-ethyl-9-methyl-14a-(((1-methylcyclopropyl)sulfonyl)carbamoyl)-5,16-dioxo-1,2,3,5,6,7,8,9,10,11,13a,14,14a,15,16,16a-hexadecahydrocyclopropa[e]pyrrolo[1,2-a][1,4]diazacyclopentadecin-6-yl)carbamate]	5.01 to 35	1.01 to 5	–
CC[C@@H]1C[C@H](C)CC/C=C\[C@@H]2C[C@@]2(C(=O)NS(=O)(=O)C2(C)CC2)NC(=O)[C@@H]2C[C@@H](Oc3nccc4cc(OC)ccc34)CN2C(=O)[C@H]1NC(=O)O[C@H](C)C(F)(F)F [Compound 4177, (R)-1,1,1-trifluoropropan-2-yl (2R,6S,7R,9R,13aS,14aR,16aS,Z)-7-ethyl-2-(6-methoxyisoquinolin-1-yloxy)-9-methyl-14a-(1-methylcyclopropylsulfonylcarbamoyl)-5,16-dioxo-1,2,3,5,6,7,8,9,10,11,13a,14,14a,15,16,16a-hexadecahydrocyclopropa[e]pyrrolo[1,2-a][1,4]diazacyclopentadecin-6-ylcarbamate]	< 5.46	< 5.46	–
COc1ccc2c(O[C@@H]3C[C@H]4C(=O)N[C@]5(C(=O)NS(=O)(=O)C6(C)CC6)C[C@H]5/C=C\CC[C@@H](C)C[C@@H](C)[C@H](NC(=O)OCC5(C)CC5)C(=O)N4C3)nc(N3CCOCC3)cc2c1 [Compound 3091, (1-methylcyclopropyl)methyl ((2R,6S,7R,9R,13aS,14aR,16aS,Z)-2-((6-methoxy-3-morpholinoisoquinolin-1-yl)oxy)-7,9-dimethyl-14a-(((1-methylcyclopropyl)sulfonyl)carbamoyl)-5,16-dioxo-1,2,3,5,6,7,8,9,10,11,13a,14,14a,15,16,16a-hexadecahydrocyclopropa[e]pyrrolo[1,2-a][1,4]diazacyclopentadecin-6-yl)carbamate]	–	–	EC50 [1, 3]: < 5.46 nM; EC50 [2, 4]: < 5.46 nM
CC[C@@H]1C[C@H](C)CC/C=C\[C@@H]2C[C@@]2(C(=O)NS(=O)(=O)C2CC2)NC(=O)[C@@H]2C[C@@H](Oc3nccc4c5c(ccc34)N(C)CCO5)CN2C(=O)[C@H]1NC(=O)OC(C)(C)C(F)(F)F [Compound 5310, 1,1,1-trifluoro-2-methylpropan-2-yl((2R,6S,7R,9R,13aS,14aR,16aS,Z)-14a-((cyclopropylsulfonyl)carbamoyl)-7-ethyl-9-methyl-2-((4-methyl-3,4-dihydro-2H-[1,4]oxazino[2,3-f]isoquinolin-7-yl)oxy)-5,16-dioxo-1,2,3,5,6,7,8,9,10,11,13a,14,14a,15,16,16a-hexadecahydrocyclopropa[e]pyrrolo[1,2-a][1,4]diazacyclopentadecin-6-yl)carbamate]	< 5.46	< 5.46	–
COc1ccc2c(O[C@@H]3C[C@H]4C(=O)N[C@]5(C(=O)NS(=O)(=O)C6CC6)C[C@H]5/C=C\CC[C@@H](C)C[C@@H](C)[C@H](NC(=O)OC(C)(C)C)C(=O)N4C3)ncnc2c1 [Compound 4032, tert-butyl (2R,6S,7R,9R,13aS,14aR,16aS,Z)-14a-(cyclopropylsulfonylcarbamoyl)-2-(7-methoxyquinazolin-4-yloxy)-7,9-dimethyl-5,16-dioxo-1,2,3,5,6,7,8,9,10,11,13a,14,14a,15,16,16a-hexadecahydrocyclopropa[e]pyrrolo[1,2-a][1,4]diazacyclopentadecin-6-ylcarbamate]	< 5.46	< 5.46	–
COc1cnc(O[C@@H]2C[C@H]3C(=O)N[C@]4(C(=O)NS(=O)(=O)C5(CF)CC5)C[C@H]4CCCC[C@@H](C)C[C@@H](C)[C@H](NC(=O)NC(C)(C)C)C(=O)N3C2)c2ccccc12 [Compound 5120, (2R,6S,7R,9R,13aR,14aR,16aS)-6-(3-(tert-butyl)ureido)-N-((1-(fluoromethyl)cyclopropyl)sulfonyl)-2-((4-methoxyisoquinolin-1-yl)oxy)-7,9-dimethyl-5,16-dioxooctadecahydrocyclopropa[e]pyrrolo[1,2-a][1,4]diazacyclopentadecine-14a-carboxamide]	< 5.46	< 5.46	–
CC[C@@H]1C[C@H](C)CC/C=C\[C@@H]2C[C@@]2(C(=O)NS(=O)(=O)C2CC2)NC(=O)[C@@H]2C[C@@H](Oc3nc(-c4ccc(OC(C)C)cn4)cc4cc(OC)ccc34)CN2C(=O)[C@H]1NC(=O)OC(C)(C)C(C)(F)F [Compound 5483, 3,3-difluoro-2-methylbutan-2-yl((2R,6S,7R,9R,13aS,14aR,16aS,Z)-14a-((cyclopropylsulfonyl)carbamoyl)-7-ethyl-2-((3-(5-isopropoxypyridin-2-yl)-6-methoxyisoquinolin-1-yl)oxy)-9-methyl-5,16-dioxo-1,2,3,5,6,7,8,9,10,11,13a,14,14a,15,16,16a-hexadecahydrocyclopropa[e]pyrrolo[1,2-a][1,4]diazacyclopentadecin-6-yl)carbamate]	1.01 to 5	1.01 to 5	–
CC[C@@H]1C[C@H](C)CC/C=C\[C@@H]2C[C@@]2(C(=O)NS(=O)(=O)C2(C)CC2)NC(=O)[C@@H]2C[C@@H](Oc3nccc4cc(OC)c(F)cc34)CN2C(=O)[C@H]1NC(=O)N1CCC(F)(F)CC1 [Compound 4344, (2R,6S,7R,9R,13aS,14aR,16aS,Z)-6-(4,4-difluoropiperidine-1-carboxamido)-7-ethyl-2-((7-fluoro-6-methoxyisoquinolin-1-yl)oxy)-9-methyl-N-((1-methylcyclopropyl)sulfonyl)-5,16-dioxo-1,2,3,5,6,7,8,9,10,11,13a,14,14a,15,16,16a-hexadecahydrocyclopropa[e]pyrrolo[1,2-a][1,4]diazacyclopentadecine-14a-carboxamide]	1.01 to 5	1.01 to 5	–
COc1ccc2c(O[C@@H]3C[C@H]4C(=O)N[C@]5(C(=O)NS(=O)(=O)C6(C)CC6)C[C@H]5/C=C\CC[C@@H](C)C[C@@H](C)[C@H](NC(=O)OC(C)(C)C(F)(F)F)C(=O)N4C3)nc(-c3ccc4c(c3)OCCO4)cc2c1 [Compound 5235, 1,1,1-trifluoro-2-methylpropan-2-yl((2R,6S,7R,9R,13aS,14aR,16aS,Z)-2-((3-(2,3-dihydrobenzo[b][1,4]dioxin-6-yl)-6-methoxyisoquinolin-1-yl)oxy)-7,9-dimethyl-14a-(((1-methylcyclopropyl)sulfonyl)carbamoyl)-5,16-dioxo-1,2,3,5,6,7,8,9,10,11,13a,14,14a,15,16,16a-hexadecahydrocyclopropa[e]pyrrolo[1,2-a][1,4]diazacyclopentadecin-6-yl)carbamate]	< 5.46	< 5.46	–
COc1cc2cc(-c3ccc(OC(C)C)cc3)nc(O[C@@H]3C[C@H]4C(=O)N[C@]5(C(=O)NS(=O)(=O)C6CC6)C[C@H]5/C=C\CC[C@H](C)C[C@@H](C)[C@H](NC(=O)O[C@@H]5C[C@@H]6C[C@@H]6C5)C(=O)N4C3)c2cc1F [Compound 3187, (1R,3r,5S)-bicyclo[3.1.0]hexan-3-yl((2R,6S,7R,9S,13aS,14aR,16aS,Z)-14a-((cyclopropylsulfonyl)carbamoyl)-2-((7-fluoro-3-(4-isopropoxyphenyl)-6-methoxyisoquinolin-1-yl)oxy)-7,9-dimethyl-5,16-dioxo-1,2,3,5,6,7,8,9,10,11,13a,14,14a,15,16,16a-hexadecahydrocyclopropa[e]pyrrolo[1,2-a][1,4]diazacyclopentadecin-6-yl)carbamate]	< 5.46	< 5.46	–
[2H]C([2H])([2H])C(C)(OC(=O)N[C@@H]1C(=O)N2C[C@H](Oc3nnc(OC)c4ccccc34)C[C@H]2C(=O)N[C@]2(C(=O)NS(=O)(=O)C3(C)CC3)C[C@H]2/C=C\CC[C@@H](C)C[C@H]1CC)C([2H])([2H])[2H] [Compound 5022]	< 5.46	< 5.46	–
COc1cc2ccccc2c(O[C@@H]2C[C@H]3C(=O)N[C@]4(C(=O)NS(=O)(=O)C5(CF)CC5)C[C@H]4/C=C\CC[C@@H](C)C[C@@H](C)[C@H](NC(=O)OC(C)(C)C(F)(F)F)C(=O)N3C2)n1 [Compound 6016]	–	–	EC50 ([1]; GETYPE1A, HCV genotype 1a replicon luciferase): < 5.46 nM; EC50 ([2]; GETYPE1B, HCV genotype 1b replicon luciferase): < 5.46 nM
